What follows are compounds tested against T1, hFXR (Homo sapiens, UniProt Q96RI1) (assay: In Vitro FXR Assay (TK): TK-ECRE-luc reporter in transfected CV-1 cells). Conditions: 18 hrs, luminescence, maximum efficacy of <25% of the Fexarmine control classified as '+'.
T1 construct: expressed in transfected cells; host or cells: CV-1 cells
T1 sequence (Q96RI1 1-486): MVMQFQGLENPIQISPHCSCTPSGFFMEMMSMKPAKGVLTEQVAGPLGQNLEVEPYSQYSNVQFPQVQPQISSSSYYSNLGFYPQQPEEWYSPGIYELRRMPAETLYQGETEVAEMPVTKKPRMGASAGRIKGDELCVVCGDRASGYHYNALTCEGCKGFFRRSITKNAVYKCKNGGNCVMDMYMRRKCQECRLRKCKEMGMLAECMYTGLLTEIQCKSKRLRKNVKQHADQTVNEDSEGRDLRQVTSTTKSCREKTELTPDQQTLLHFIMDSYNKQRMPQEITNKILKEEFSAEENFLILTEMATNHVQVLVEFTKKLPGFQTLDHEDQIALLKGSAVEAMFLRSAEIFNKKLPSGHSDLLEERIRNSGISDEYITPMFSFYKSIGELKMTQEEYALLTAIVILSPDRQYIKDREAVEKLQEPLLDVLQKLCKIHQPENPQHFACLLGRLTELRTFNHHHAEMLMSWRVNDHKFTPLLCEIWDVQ
T1 sequence (P19793 1-462 partner): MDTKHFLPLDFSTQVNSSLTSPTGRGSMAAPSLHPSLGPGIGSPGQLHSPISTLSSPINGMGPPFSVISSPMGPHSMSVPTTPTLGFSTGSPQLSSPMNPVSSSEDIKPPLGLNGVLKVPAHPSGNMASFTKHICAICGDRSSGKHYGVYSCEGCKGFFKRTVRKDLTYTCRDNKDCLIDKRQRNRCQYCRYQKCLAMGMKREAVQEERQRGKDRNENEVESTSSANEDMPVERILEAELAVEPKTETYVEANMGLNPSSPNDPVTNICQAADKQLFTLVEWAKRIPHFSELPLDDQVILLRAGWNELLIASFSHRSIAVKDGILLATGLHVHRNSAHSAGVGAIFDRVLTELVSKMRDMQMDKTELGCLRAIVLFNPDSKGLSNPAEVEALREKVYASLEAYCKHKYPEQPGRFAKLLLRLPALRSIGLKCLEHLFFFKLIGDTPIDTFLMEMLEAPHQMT
Format: cell-based
Method: CV-1 cells were seeded at a density of 2,000,000 cells in a T175 flask with DMEM+10% charcoal double-stripped FBS and incubated at 37° C. in 5% CO2 for 18 h (O/N).
After 18 h of incubation, the medium in the T175 flask was changed with fresh DMEM+10% charcoal super-stripped serum. In a polypropylene tube, 2500 μL OptiMEM (Life Technologies, Cat #31985-062) was combined with expression plasmids for hFXR, hRXR, TK-ECRE-luc and pCMX-YFP. The tube was then briefly vortexed and incubated at room temperature for 5 minutes. Transfection reagent (X-tremeGENE HP from Roche, Cat #06 366 236 001) was added to the OptiMEM/plasmid mixture vortexed and incubated at room temperature for 20 minutes. Following incubation, the transfection reagent/DNA mixture complex was added to cells in the T175 flask and the cells were incubated at 37° C. in 5% CO2 for 18 h (O/N).
Compounds were serially diluted in DMSO and added to transfected CV-1 cells. The cells were then incubated for 18 hrs. The next day cells were lysed and examined for luminescence.

EC50, ≤ 250 nM:
COc1ccc([C@H]2CC[C@H](CN(c3cccc(-c4cnn(C5CC5)c4)c3)C(=O)[C@H]3CC[C@H](OC(=O)NCCCN(C)C)CC3)CC2)cc1C [Compound 4.11, trans-4-((3-(1-Cyclopropyl-1H-pyrazol-4-yl)phenyl)((trans-4-(4-methoxy-3-methylphenyl)cyclohexyl)methyl)carbamoyl)cyclohexyl (3-(dimethylamino)propyl)carbamate]
CN(C)c1ccc(C23CCC(CN(c4cccc(-c5cnn(C6CC6)c5)c4)C(=O)[C@H]4CC[C@H](OC(=O)NCCO)CC4)(CC2)CC3)cn1 [Compound 4.12, 4-((3-(1-Cyclopropyl-1H-pyrazol-4-yl)phenyl)((4-(6-(dimethylamino)pyridin-3-yl)bicyclo[2.2.2]octan-1-yl)methyl)carbamoyl)cyclohexyl (2-hydroxyethyl)trans-carbamate]
COc1ccc([C@H]2CC[C@H](CN(c3cccc(-c4cnn(C5CC5)c4)c3)C(=O)[C@H]3CC[C@H](OC(=O)NCc4ncc[nH]4)CC3)CC2)cc1C [Compound 4.13, trans-4-((3-(1-Cyclopropyl-1H-pyrazol-4-yl)phenyl)((trans-4-(4-methoxy-3-methylphenyl)cyclohexyl)methyl)carbamoyl)cyclohexyl ((1H-imidazol-2-yl)methyl)carbamate]
COc1ccc([C@H]2CC[C@H](CN(c3cccc(-c4cnn(C5CC5)c4)c3)C(=O)[C@H]3CC[C@H](OC(=O)NCCN(C)C(=O)OC(C)(C)C)CC3)CC2)cc1C [Compound 4.14, tert-Butyl (2-((((trans-4-((3-(1-cyclopropyl-1H-pyrazol-4-yl)phenyl)((trans-4-(4-methoxy-3-methylphenyl)cyclohexyl)methyl)carbamoyl)cyclohexyl)oxy)carbonyl)amino)ethyl)(methyl)carbamate]
COc1ccc([C@H]2CC[C@H](CN(c3cccc(-c4cnn(C5CC5)c4)c3)C(=O)[C@H]3CC[C@H](OC(=O)NCc4c[nH]cn4)CC3)CC2)cc1C [Compound 4.15, trans-4-((3-(1-Cyclopropyl-1H-pyrazol-4-yl)phenyl)((trans-4-(4-methoxy-3-methylphenyl)cyclohexyl)methyl)carbamoyl)cyclohexyl ((1H-imidazol-4-yl)methyl)carbamate]
COc1ccc([C@H]2CC[C@H](CN(c3cccc(-c4cnn(C5CC5)c4)c3)C(=O)[C@H]3CC[C@H](OC(=O)NCCN)CC3)CC2)cc1C [Compound 4.16, trans-4-((3-(1-Cyclopropyl-1H-pyrazol-4-yl)phenyl)((trans-4-(4-methoxy-3-methylphenyl)cyclohexyl)methyl)carbamoyl)cyclohexyl (2-aminoethyl)carbamate]
COc1ccc([C@H]2CC[C@H](CN(c3cccc(-c4cnn(C5CC5)c4)c3)C(=O)[C@H]3CC[C@H](OC(=O)NC4CN(C(=O)OC(C)(C)C)C4)CC3)CC2)cc1C [Compound 4.17, tert-Butyl 3-((((trans-4-((3-(1-cyclopropyl-1H-pyrazol-4-yl)phenyl)((trans-4-(4-methoxy-3-methylphenyl)cyclohexyl)methyl)carbamoyl)cyclohexyl)oxy)carbonyl)amino)azetidine-1-carboxylate]
COc1ccc([C@H]2CC[C@H](CN(c3cccc(-c4cnn(C5CC5)c4)c3)C(=O)[C@H]3CC[C@H](OC(=O)NC4CNC4)CC3)CC2)cc1C [Compound 4.18, trans-4-((3-(1-Cyclopropyl-1H-pyrazol-4-yl)phenyl)((trans-4-(4-methoxy-3-methylphenyl)cyclohexyl)methyl)carbamoyl)cyclohexyl azetidin-3-ylcarbamate]
COc1ccc([C@H]2CC[C@H](CN(c3cc(-c4cnn(C5CC5)c4)ccn3)C(=O)[C@H]3CC[C@H](OC(=O)NCCO)CC3)CC2)cc1C [Compound 4.19, trans-4-((4-(1-Cyclopropyl-1H-pyrazol-4-yl)pyridin-2-yl)((trans-4-(4-methoxy-3-methylphenyl)cyclohexyl)methyl)carbamoyl)cyclohexyl (2-hydroxyethyl)carbamate]
COc1ccc([C@H]2CC[C@H](CN(c3cccc(-c4cnn(C5CC5)c4)c3)C(=O)[C@H]3CC[C@H](OC(=O)NCCCCN(C)C)CC3)CC2)cc1C [Compound 4.20, trans-4-((3-(1-Cyclopropyl-1H-pyrazol-4-yl)phenyl)((trans-4-(4-methoxy-3-methylphenyl)cyclohexyl)methyl)carbamoyl)cyclohexyl (4-(dimethylamino)butyl)carbamate]
COc1ccc([C@H]2CC[C@H](CN(c3cccc(-c4cnn(C5CC5)c4)c3)C(=O)[C@H]3CC[C@H](OC(=O)NCCCCCN(C)C)CC3)CC2)cc1C [Compound 4.21, trans-4-((3-(1-Cyclopropyl-1H-pyrazol-4-yl)phenyl)((trans-4-(4-methoxy-3-methylphenyl)cyclohexyl)methyl)carbamoyl)cyclohexyl (5-(dimethylamino)pentyl)carbamate]
CN(C)c1ccc([C@H]2CC[C@H](CN(c3cccc(-c4coc(C5CC5)n4)c3)C(=O)[C@H]3CC[C@H](OC(=O)NCCO)CC3)CC2)cn1 [Compound 4.22, trans-4-((3-(2-Cyclopropyloxazol-4-yl)phenyl)((trans-4-(6-(dimethylamino)pyridine-3-yl)cyclohexyl)methyl)carbamoyl)cyclohexyl (2-hydroxyethyl)carbamate]
CN(C)c1ccc(C23CCC(CN(c4cccc(-c5coc(C6CC6)n5)c4)C(=O)[C@H]4CC[C@H](OC(=O)NCCO)CC4)(CC2)CC3)cn1 [Compound 4.23, 4-((3-(2-Cyclopropyloxazol-4-yl)phenyl)((4-(6-(dimethylamino)pyridin-3-yl)bicyclo[2.2.2]octan-1-yl)methyl)carbamoyl)cyclohexyl trans-(2-hydroxyethyl)carbamate]
COc1ccc([C@H]2CC[C@H](CN(c3cc(-c4coc(C5CC5)n4)ccn3)C(=O)[C@H]3CC[C@H](OC(=O)NCCO)CC3)CC2)nc1C [Compound 4.24, trans-4-((4-(2-Cyclopropyloxazol-4-yl)pyridine-2-yl)((trans-4-(5-methoxy-6-methylpyridin-2-yl)cyclohexyl)methyl)carbamoyl)cyclohexyl (2-hydroxyethyl)carbamate]
COc1ccc([C@H]2CC[C@H](CN(c3cccc(-c4cnn(C5CC5)c4)c3)C(=O)[C@H]3CC[C@H](OC(=O)N4CC(O)C4)CC3)CC2)cc1C [Compound 4.25, trans-4-((3-(1-Cyclopropyl-1H-pyrazol-4-yl)phenyl)((trans-4-(4-methoxy-3-methylphenyl)cyclohexyl)methyl)carbamoyl)cyclohexyl 3-hydroxyazetidine-1-carboxylate]
COc1ccc([C@H]2CC[C@H](CN(c3cccc(-c4cnn(C5CC5)c4)c3)C(=O)[C@H]3CC[C@H](OC(=O)N4CC(O)C4)CC3)CC2)nc1C [Compound 4.26, trans-4-((3-(1-Cyclopropyl-1H-pyrazol-4-yl)phenyl)((trans-4-(5-methoxy-6-methylpyridin-2-yl)cyclohexyl)methyl)carbamoyl)cyclohexyl 3-hydroxyazetidine-1-carboxylate]
COc1ccc([C@H]2CC[C@H](CN(c3cc(-c4cnn(C5CC5)c4)ccn3)C(=O)[C@H]3CC[C@H](OC(=O)N4CC(O)C4)CC3)CC2)cc1C [Compound 4.27, trans-4-((4-(1-Cyclopropyl-1H-pyrazol-4-yl)pyridin-2-yl)((trans-4-(4-methoxy-3-methylphenyl)cyclohexyl)methyl)carbamoyl)cyclohexyl 3-hydroxyazetidine-1-carboxylate]

Source: US20220089575A1, “FARNESOID X RECEPTOR AGONISTS AND USES THEREOF” (Metacrine, Inc., priority 2017, published 2022)
